Results published in ChEMBL document CHEMBL2390858, “Design, synthesis and anti-tuberculosis activity of 1-adamantyl-3-heteroaryl ureas with improved in vitro pharmacokinetic properties” (Bioorg Med Chem, 2013).
Converted amounts (≈) assume the structure as drawn.

Test system: Proteus vulgaris
Test: microbe, parasite or virus in culture
Conditions: not given

Row | SMILES | MIC
1 | COc1ccc(NS(=O)(=O)c2ccc(NC(=O)NC34CC5CC(CC(C5)C3)C4)cc2)nn1 | 200 µg/mL (≈ 437 µM)
2 | O=C(Nc1cccnc1)NC12CC3CC(CC(C3)C1)C2 | > 200 µg/mL
3 | O=C(Nc1ncco1)NC1C2CC3CC(C2)CC1C3 (configuration not stated) | > 200 µg/mL
4 | O=C(Nc1nnc(-c2cccs2)o1)NC12CC3CC(CC(C3)C1)C2 | > 200 µg/mL
5 | Cc1noc(NC(=O)NC23CC4CC(CC(C4)C2)C3)c1C | > 200 µg/mL

Test system: Staphylococcus aureus
Test: microbe, parasite or virus in culture
Conditions: ATCC 29213

Row | SMILES | MIC
6 | COc1ccc(NS(=O)(=O)c2ccc(NC(=O)NC34CC5CC(CC(C5)C3)C4)cc2)nn1 | 200 µg/mL (≈ 437 µM)
7 | O=C(Nc1cccnc1)NC12CC3CC(CC(C3)C1)C2 | > 200 µg/mL
8 | O=C(Nc1ncco1)NC1C2CC3CC(C2)CC1C3 (configuration not stated) | > 200 µg/mL
9 | O=C(Nc1nnc(-c2cccs2)o1)NC12CC3CC(CC(C3)C1)C2 | > 200 µg/mL
10 | Cc1noc(NC(=O)NC23CC4CC(CC(C4)C2)C3)c1C | > 200 µg/mL

Test system: Enterococcus faecalis
Test: microbe, parasite or virus in culture
Conditions: not given

Row | SMILES | MIC
11 | COc1ccc(NS(=O)(=O)c2ccc(NC(=O)NC34CC5CC(CC(C5)C3)C4)cc2)nn1 | 200 µg/mL (≈ 437 µM)
12 | O=C(Nc1cccnc1)NC12CC3CC(CC(C3)C1)C2 | > 200 µg/mL
13 | O=C(Nc1ncco1)NC1C2CC3CC(C2)CC1C3 (configuration not stated) | > 200 µg/mL
14 | Cc1noc(NC(=O)NC23CC4CC(CC(C4)C2)C3)c1C | > 200 µg/mL

Test system: not given
Test: not given
Conditions: buffer, 18 h, pH 7.4

Row | SMILES | solubility
15 | COc1ccc(NS(=O)(=O)c2ccc(NC(=O)NC34CC5CC(CC(C5)C3)C4)cc2)nn1 | 14.1 µg/mL (≈ 30.8 µM)
16 | O=C(Nc1cccnc1)NC12CC3CC(CC(C3)C1)C2 | 6.7 µg/mL (≈ 24.7 µM)
17 | O=C(Nc1ncco1)NC1C2CC3CC(C2)CC1C3 (configuration not stated) | 14.9 µg/mL (≈ 57 µM)
18 | O=C(Nc1nnc(-c2cccs2)o1)NC12CC3CC(CC(C3)C1)C2 | 2.2 µg/mL (≈ 6.39 µM)
19 | Cc1noc(NC(=O)NC23CC4CC(CC(C4)C2)C3)c1C | 5.7 µg/mL (≈ 19.7 µM)

Test system: Staphylococcus aureus
Test: microbe, parasite or virus in culture
Conditions: NRS70

Row | SMILES | MIC
20 | COc1ccc(NS(=O)(=O)c2ccc(NC(=O)NC34CC5CC(CC(C5)C3)C4)cc2)nn1 | 100 µg/mL (≈ 219 µM)
21 | O=C(Nc1cccnc1)NC12CC3CC(CC(C3)C1)C2 | > 200 µg/mL
22 | O=C(Nc1ncco1)NC1C2CC3CC(C2)CC1C3 (configuration not stated) | 200 µg/mL (≈ 765 µM)
23 | O=C(Nc1nnc(-c2cccs2)o1)NC12CC3CC(CC(C3)C1)C2 | > 200 µg/mL
24 | Cc1noc(NC(=O)NC23CC4CC(CC(C4)C2)C3)c1C | > 200 µg/mL

Test system: Bacillus subtilis
Test: microbe, parasite or virus in culture
Conditions: not given

Row | SMILES | MIC
25 | COc1ccc(NS(=O)(=O)c2ccc(NC(=O)NC34CC5CC(CC(C5)C3)C4)cc2)nn1 | 200 µg/mL (≈ 437 µM)
26 | O=C(Nc1cccnc1)NC12CC3CC(CC(C3)C1)C2 | > 200 µg/mL
27 | O=C(Nc1ncco1)NC1C2CC3CC(C2)CC1C3 (configuration not stated) | > 200 µg/mL
28 | O=C(Nc1nnc(-c2cccs2)o1)NC12CC3CC(CC(C3)C1)C2 | > 200 µg/mL
29 | Cc1noc(NC(=O)NC23CC4CC(CC(C4)C2)C3)c1C | > 200 µg/mL

Test system: Acinetobacter
Test: microbe, parasite or virus in culture
Conditions: not given

Row | SMILES | MIC
30 | COc1ccc(NS(=O)(=O)c2ccc(NC(=O)NC34CC5CC(CC(C5)C3)C4)cc2)nn1 | > 200 µg/mL
31 | O=C(Nc1cccnc1)NC12CC3CC(CC(C3)C1)C2 | > 200 µg/mL
32 | O=C(Nc1ncco1)NC1C2CC3CC(C2)CC1C3 (configuration not stated) | > 200 µg/mL
33 | O=C(Nc1nnc(-c2cccs2)o1)NC12CC3CC(CC(C3)C1)C2 | > 200 µg/mL

Molecular target: T1, Bifunctional epoxide hydrolase 2 (Homo sapiens, UniProt P34913)
T1 sequence (P34913 whole entry): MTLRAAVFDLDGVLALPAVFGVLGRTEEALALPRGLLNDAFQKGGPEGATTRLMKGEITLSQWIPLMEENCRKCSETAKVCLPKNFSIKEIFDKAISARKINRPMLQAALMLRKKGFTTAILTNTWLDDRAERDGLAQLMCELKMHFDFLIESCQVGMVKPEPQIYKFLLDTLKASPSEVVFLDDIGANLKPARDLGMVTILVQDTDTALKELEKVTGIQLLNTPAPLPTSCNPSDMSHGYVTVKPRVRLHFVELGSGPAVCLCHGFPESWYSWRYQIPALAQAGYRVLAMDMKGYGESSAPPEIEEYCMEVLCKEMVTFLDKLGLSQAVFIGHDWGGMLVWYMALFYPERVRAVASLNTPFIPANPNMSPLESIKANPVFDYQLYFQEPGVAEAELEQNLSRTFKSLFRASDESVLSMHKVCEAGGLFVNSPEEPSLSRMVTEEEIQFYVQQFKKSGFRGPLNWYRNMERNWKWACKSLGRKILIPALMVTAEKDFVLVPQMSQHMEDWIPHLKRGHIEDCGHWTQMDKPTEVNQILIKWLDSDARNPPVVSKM
Test: not given
Conditions: not given

Row | SMILES | IC50
34 | COc1ccc(NS(=O)(=O)c2ccc(NC(=O)NC34CC5CC(CC(C5)C3)C4)cc2)nn1 | 7 nM
35 | O=C(Nc1cccnc1)NC12CC3CC(CC(C3)C1)C2 | 113 nM
36 | O=C(Nc1ncco1)NC1C2CC3CC(C2)CC1C3 (configuration not stated) | 46 nM
37 | O=C(Nc1nnc(-c2cccs2)o1)NC12CC3CC(CC(C3)C1)C2 | 1570 nM
38 | Cc1noc(NC(=O)NC23CC4CC(CC(C4)C2)C3)c1C | 20 nM

Test system: Burkholderia cepacia
Test: microbe, parasite or virus in culture
Conditions: not given

Row | SMILES | MIC
39 | COc1ccc(NS(=O)(=O)c2ccc(NC(=O)NC34CC5CC(CC(C5)C3)C4)cc2)nn1 | 200 µg/mL (≈ 437 µM)
40 | O=C(Nc1cccnc1)NC12CC3CC(CC(C3)C1)C2 | > 200 µg/mL
41 | O=C(Nc1ncco1)NC1C2CC3CC(C2)CC1C3 (configuration not stated) | 6.25 µg/mL (≈ 23.9 µM)
42 | O=C(Nc1nnc(-c2cccs2)o1)NC12CC3CC(CC(C3)C1)C2 | > 200 µg/mL
43 | Cc1noc(NC(=O)NC23CC4CC(CC(C4)C2)C3)c1C | > 200 µg/mL

Test system: Mycobacterium tuberculosis
Test: microbe, parasite or virus in culture
Conditions: H37Rv, 168 h

Row | SMILES | MIC
44 | COc1ccc(NS(=O)(=O)c2ccc(NC(=O)NC34CC5CC(CC(C5)C3)C4)cc2)nn1 | 25 µg/mL (≈ 54.6 µM)
45 | O=C(Nc1cccnc1)NC12CC3CC(CC(C3)C1)C2 | 12.5 µg/mL (≈ 46.1 µM)
46 | O=C(Nc1ncco1)NC1C2CC3CC(C2)CC1C3 (configuration not stated) | 12.5 µg/mL (≈ 47.8 µM)
47 | O=C(Nc1nnc(-c2cccs2)o1)NC12CC3CC(CC(C3)C1)C2 | 100 µg/mL (≈ 290 µM)
48 | Cc1noc(NC(=O)NC23CC4CC(CC(C4)C2)C3)c1C | 100 µg/mL (≈ 346 µM)

Test system: Streptococcus pneumoniae
Test: microbe, parasite or virus in culture
Conditions: not given

Row | SMILES | MIC
49 | COc1ccc(NS(=O)(=O)c2ccc(NC(=O)NC34CC5CC(CC(C5)C3)C4)cc2)nn1 | 100 µg/mL (≈ 219 µM)
50 | O=C(Nc1cccnc1)NC12CC3CC(CC(C3)C1)C2 | > 200 µg/mL
51 | O=C(Nc1ncco1)NC1C2CC3CC(C2)CC1C3 (configuration not stated) | > 200 µg/mL
52 | O=C(Nc1nnc(-c2cccs2)o1)NC12CC3CC(CC(C3)C1)C2 | > 200 µg/mL
53 | Cc1noc(NC(=O)NC23CC4CC(CC(C4)C2)C3)c1C | > 200 µg/mL

Test system: Proteus mirabilis
Test: microbe, parasite or virus in culture
Conditions: not given

Row | SMILES | MIC
54 | COc1ccc(NS(=O)(=O)c2ccc(NC(=O)NC34CC5CC(CC(C5)C3)C4)cc2)nn1 | 100 µg/mL (≈ 219 µM)
55 | O=C(Nc1cccnc1)NC12CC3CC(CC(C3)C1)C2 | > 200 µg/mL
56 | O=C(Nc1ncco1)NC1C2CC3CC(C2)CC1C3 (configuration not stated) | > 200 µg/mL
57 | O=C(Nc1nnc(-c2cccs2)o1)NC12CC3CC(CC(C3)C1)C2 | > 200 µg/mL
58 | Cc1noc(NC(=O)NC23CC4CC(CC(C4)C2)C3)c1C | > 200 µg/mL

Test system: Pseudomonas aeruginosa
Test: microbe, parasite or virus in culture
Conditions: not given

Row | SMILES | MIC
59 | COc1ccc(NS(=O)(=O)c2ccc(NC(=O)NC34CC5CC(CC(C5)C3)C4)cc2)nn1 | > 200 µg/mL
60 | O=C(Nc1cccnc1)NC12CC3CC(CC(C3)C1)C2 | > 200 µg/mL
61 | O=C(Nc1ncco1)NC1C2CC3CC(C2)CC1C3 (configuration not stated) | > 200 µg/mL
62 | O=C(Nc1nnc(-c2cccs2)o1)NC12CC3CC(CC(C3)C1)C2 | > 200 µg/mL
63 | Cc1noc(NC(=O)NC23CC4CC(CC(C4)C2)C3)c1C | > 200 µg/mL

Test system: Streptococcus pyogenes
Test: microbe, parasite or virus in culture
Conditions: not given

Row | SMILES | MIC
64 | COc1ccc(NS(=O)(=O)c2ccc(NC(=O)NC34CC5CC(CC(C5)C3)C4)cc2)nn1 | > 200 µg/mL
65 | O=C(Nc1cccnc1)NC12CC3CC(CC(C3)C1)C2 | > 200 µg/mL
66 | O=C(Nc1ncco1)NC1C2CC3CC(C2)CC1C3 (configuration not stated) | > 200 µg/mL
67 | O=C(Nc1nnc(-c2cccs2)o1)NC12CC3CC(CC(C3)C1)C2 | > 200 µg/mL
68 | Cc1noc(NC(=O)NC23CC4CC(CC(C4)C2)C3)c1C | > 200 µg/mL

Test system: Bacillus anthracis
Test: microbe, parasite or virus in culture
Conditions: Sterne

Row | SMILES | MIC
69 | COc1ccc(NS(=O)(=O)c2ccc(NC(=O)NC34CC5CC(CC(C5)C3)C4)cc2)nn1 | 50 µg/mL (≈ 109 µM)
70 | O=C(Nc1cccnc1)NC12CC3CC(CC(C3)C1)C2 | > 200 µg/mL
71 | O=C(Nc1ncco1)NC1C2CC3CC(C2)CC1C3 (configuration not stated) | > 200 µg/mL
72 | O=C(Nc1nnc(-c2cccs2)o1)NC12CC3CC(CC(C3)C1)C2 | > 200 µg/mL

Test system: Klebsiella pneumoniae
Test: microbe, parasite or virus in culture
Conditions: not given

Row | SMILES | MIC
73 | COc1ccc(NS(=O)(=O)c2ccc(NC(=O)NC34CC5CC(CC(C5)C3)C4)cc2)nn1 | > 200 µg/mL
74 | O=C(Nc1cccnc1)NC12CC3CC(CC(C3)C1)C2 | > 200 µg/mL
75 | O=C(Nc1ncco1)NC1C2CC3CC(C2)CC1C3 (configuration not stated) | > 200 µg/mL
76 | O=C(Nc1nnc(-c2cccs2)o1)NC12CC3CC(CC(C3)C1)C2 | > 200 µg/mL
77 | Cc1noc(NC(=O)NC23CC4CC(CC(C4)C2)C3)c1C | > 200 µg/mL

Test system: Escherichia coli
Test: microbe, parasite or virus in culture
Conditions: K-12

Row | SMILES | MIC
78 | COc1ccc(NS(=O)(=O)c2ccc(NC(=O)NC34CC5CC(CC(C5)C3)C4)cc2)nn1 | 200 µg/mL (≈ 437 µM)
79 | O=C(Nc1cccnc1)NC12CC3CC(CC(C3)C1)C2 | > 200 µg/mL
80 | O=C(Nc1ncco1)NC1C2CC3CC(C2)CC1C3 (configuration not stated) | > 200 µg/mL
81 | O=C(Nc1nnc(-c2cccs2)o1)NC12CC3CC(CC(C3)C1)C2 | > 200 µg/mL
82 | Cc1noc(NC(=O)NC23CC4CC(CC(C4)C2)C3)c1C | > 200 µg/mL
